Experimental findings from patent US5232924A, “Heterocyclic compound having serotonine 2-receptor antagonistic activity” (Daiichi Pharmaceutical Co., Ltd., priority 1989, dated 1993) are described below.

For data set [1], the system named is Sympathetic Nerve α1 -Receptor. Put plainly: Antagonistic activity on sympathetic nerve α1-receptor: inhibition of the phenylephrine-induced increase in blood pressure in anesthetized rats. The class given is in vivo. To be noted: SD-SLC male rat, 10 mg/kg p.o.; after 60 minutes from the administration; inhibition of blood pressure increase by phenylephrine 100 μg/kg i.v. The procedure:
A test compound dissolved in purified water was orally administered to an SD-SLC male rat at a dose of 10 mg/kg. After 30 minutes from the administration, the rat was anesthetized with urethane (1 g/kg, i.p.) and α-Chloralose (80 mg/kg, i.p.). A polyethylene cannula was inserted into the carotid artery, and the blood pressure was recorded on a polygraph by using a pressure transducer. After 60 minutes from the administration of the test compound, 100 μg/kg of phenylephrine was intravenously injected to observe an increase in blood pressure. Sympathetic nerve α1 -receptor antagonistic activity of the test compound was calculated as a percentage of inhibition of an increase in blood pressure induced by phenylephrine. The inhibitory effect of the test compound was compared with that of vehicle solution treated group.

A further data set addresses T1, Serotonin 2-Receptor (Rattus norvegicus, UniProt P14842).
T1 construct: from tissue; host or cells: intact anesthetized SD-SLC male rat (vascular response)
Put plainly: Antagonistic activity on serotonin 2-receptor: inhibition of the serotonin-induced increase in blood pressure in anesthetized rats. It is filed as in vivo. To be noted: SD-SLC male rat, 10 mg/kg p.o.; after 60 minutes from the administration; inhibition of blood pressure increase by serotonin 300 μg/kg i.v. How it is done:
A test compound dissolved in purified water was orally administered to an SD-SLC male rat at a dose of 10 mg/kg. After 30 minutes from the administration, the rat was anesthetized with urethane (1 g/kg, i.p.) and α-Chloralose (80 mg/kg, i.p.). A polyethylene cannula was inserted into the carotid artery, and the blood pressure was recorded on a polygraph by using a pressure transducer. After 60 minutes or 180 minutes from the administration of the test compound, 300 μg/kg of serotonin was intravenously injected, and an increase in blood pressure was observed. Serotonin 2 (hereinafter referred to as […]) antagonistic activity of the test compound was calculated as a percentage of inhibition of an increase in blood pressure induced by […]. The inhibitory effect of the test compound wa compared with that of vehicle solution treated group.

Another data set relates to ddy male mice. Put plainly: Toxicity in mice, repeated oral administration. It is filed as in vivo, mouse. The procedure:
A test compound dissolved or suspended in a 1% methyl cellulose solution was orally administered to ddy male mice (4 or 5 mice per group) at a dose of 200 mg/kg once a day for consecutive 4 days. The number of dead animals per group was counted on the day next to the final administration day. As a control, 10 mλ/kg of 1% methyl cellulose solution was orally administered.

Data set [2] relates to Mongrel dogs. Briefly: Acute cardiac infarction model: LDA ligature and reperfusion in dogs. The note with it: dog, 1 mg/kg/hr intravenous drip, mean ± S.E.M. It is filed as in vivo. The procedure:
Mongrel dogs (body weight: 8 to 20 kg) under anesthesia were ventilated artificially and underwent a left thracotomy. […] A polyethylene cannula was inserted into the femoral artery, and the blood pressure and heart rate were recorded A cannula was inserted into the […] of a drug and also into the carotid artery from which a blood sample was to be taken. After stabilization period of the test preparation, LDA was ligated with a clamp. After 2 hours from the ligature, the clamp was released for reperfusion. After observation for the following 4 hours, the heart was excised. […] Then, the heart was washed and sliced at 1 cm intervals from the apex in the direction vertical to the longer axis. Each slice at the left ventricle was divided into a part which was in risk of cardiac infarction indicated by Evans' Blue stain (hereinafter referred to as risk area) and a normal area, and each area was weighed. The weight of the left ventricle (the sum of the risk area and the normal area) and that of the risk area of each slice were individually added up to obtain the weight of the whole left ventricle and the total weight of the risk area. Further, of each slice, the area of the risk area which was not stained with Evans' Blue and that of a cardiac infarction area within the risk area which remained white, i.e., which was stained neither in blue with Evans' Blue nor in red with triphenyltetrazolium chloride, were measured to obtain a ratio of cardiac infarction part to the whole left ventricle (infarction size). […] The experiment was conducted for the following groups.

For data set [3], the system named is Mongrel dogs. Briefly: Angina pectoris model: partial LDA occlusion with cyclic coronary flow reduction in dogs. The class given is in vivo. To be noted: dog, 0.1 mg/kg i.v. (maleate); mean ± S.E.M.; before admin. 9.9 ± 2.5. The procedure: Mongrel dogs (body weight: 8 to 20 kg) under anesthesia with pentobarbital (30 mg/kg, i.v.) were ventilated artificially and underwent a left thoracotomy. LDA was separated from connected tissues. A silicone tube for partial occlusion was placed around the LDA, and a probe for blood flow rate measurement was fixed in the neighborhood. The blood flow rate was measured with a pulse Doppler blood flow meter. A cannula was inserted into a branch distal to the occlusion site of the left coronary artery, and the coronary blood pressure was measured. A polyethylene cannula was inserted into the femoral artery, and the systemic blood pressure and heart rate were recorded. A cannula was inserted to the femoral vein for administration of a drug.
The effect of the drug was expressed in terms of frequency of the periodic reduction of blood flow rate.

The test system of another data set is rats. Briefly: Toxicity in rats, oral administration for 10 days. It is filed as in vivo, rat. The note with it: 5 test animals.
The mark [4] stands for this setting: ddy male mice, 200 mg/kg p.o. once a day for consecutive 4 days, dead animals per group.

Structures can show the parent of a compound that is named as a salt.

T1 sequence (P14842 whole entry): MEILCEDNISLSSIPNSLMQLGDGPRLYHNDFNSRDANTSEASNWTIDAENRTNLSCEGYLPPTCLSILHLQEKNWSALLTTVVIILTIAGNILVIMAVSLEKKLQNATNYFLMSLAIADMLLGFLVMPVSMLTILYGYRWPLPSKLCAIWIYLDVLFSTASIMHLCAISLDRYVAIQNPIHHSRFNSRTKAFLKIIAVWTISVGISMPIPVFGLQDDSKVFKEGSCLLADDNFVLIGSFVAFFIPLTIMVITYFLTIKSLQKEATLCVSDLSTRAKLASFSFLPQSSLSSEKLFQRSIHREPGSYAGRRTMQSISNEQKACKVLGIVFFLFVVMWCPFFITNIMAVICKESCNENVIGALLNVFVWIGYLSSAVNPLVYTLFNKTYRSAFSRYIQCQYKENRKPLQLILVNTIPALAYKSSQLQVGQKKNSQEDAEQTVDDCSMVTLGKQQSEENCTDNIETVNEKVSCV

On to `Cl.O=C(c1ccc(F)cc1)C1CCN(CCn2c(=O)nc3n(c2=O)CCCC3)CC1` [Example 2, 3-[2-[4-(4-Fluorobenzoyl)piperidin-1-yl]ethyl]-6,7,8,9-tetrahydro-2H-pyrido[1,2-a]-1,3,5-triazine-2,4(3H)-dione Hydrochloride], for which the “Antagonistic Activity α1 (%)” value in data set [1] is recorded as 9%. Further, at Serotonin 2-Receptor, the “Antagonistic Activity 5-HT2 (%)” value turned out to be 93%. In addition, the “Toxicity (Death Rate)” value in the data set with ddy male mice (setting [4]) is 1/5. Also, the “Myocardial Blood Flow” value in the data set on Mongrel dogs [2] (after 2 h ligature and reperfusion, control 62 ± 9) was 89 ± 14 ml/min/100 g. In the data set with Mongrel dogs [2] (ratio of cardiac infarction part to the whole left ventricle, control 30 ± 7), the “Infarction Size (%)” value is 11 ± 3%.

Take `O=C(O)/C=C\C(=O)O.O=C(c1ccc(F)cc1)[C@@H]1CCN(CCn2nc3n(c2=O)CCCC3)C[C@H]1c1ccc(F)cc1` (relative stereo) [Example 67, 2-[2-[trans-3-(4-Fluorophenyl)-4-(4-fluorobenzoyl)piperidin-1-yl]ethyl]-5,6,7,8-tetrahydro-3H-1,2,4-triazolo[4,3-a]pyridin-3(2H)-one Maleate]: the “Antagonistic Activity α1 (%)” value in data set [1] was 4%. The “Antagonistic Activity 5-HT2 (%)” value on Serotonin 2-Receptor is 90%.

As for `O=C(c1ccc(Cl)cc1)C1CCN(CCn2nc3n(c2=O)CCCC3)CC1` [Example 75, 2-[2-[4-(4-Chlorobenzoyl)piperidin-1-yl]ethyl]-5,6,7,8-tetrahydro-1,2,4-triazolo[4,3-a]pyridin-3(2H)-one Hydrochloride], the “Antagonistic Activity α1 (%)” value in data set [1] was determined as 17%. For the same molecule, the “Antagonistic Activity 5-HT2 (%)” value on Serotonin 2-Receptor was 83%. For the same molecule, the “Toxicity (Death Rate)” value with ddy male mice (setting [4]) is reported as 0/3.

Turning to `O=c1nc2sccn2c(=O)n1CCN1CCC(=C(c2ccc(F)cc2)c2ccc(F)cc2)CC1` [Example 21, 3-[2-[4-[Bis(4-fluorophenyl)methylene]piperidin-1-yl]ethyl]-2H-thiazolo-[3.2-a]-1,3,5-triazine-2,4(3H)-dione Hydrochloride], in data set [1], the “Antagonistic Activity α1 (%)” value is reported as 3%. Moreover, the “Antagonistic Activity 5-HT2 (%)” value on Serotonin 2-Receptor is recorded as 93%.

In the case of `Cl.Cl.O=c1nc2n(c(=O)n1CCN1CCC(=C(c3ccc(F)cc3)c3ccc(F)cc3)CC1)CCCC2` [Example 18, 3-[2-[4-[Bis(4-fluorophenyl)methylene]-piperidin-1-yl]ethyl]-6,7,8,9-tetrahydro-2H-pyrido-[1,2-a]-1,3,5-triazine-2,4(3H)-dione Dihydrochloride], the “Antagonistic Activity α1 (%)” value in data set [1] was found to be 6%. The “Antagonistic Activity 5-HT2 (%)” value on Serotonin 2-Receptor turned out to be 93%. Further, the “Toxicity (Death Rate)” value in the data set on ddy male mice (setting [4]) was 0/5.

Regarding `Cl.O=C(c1ccc(F)cc1)C1(O)CCN(CCn2nc3n(c2=O)CCCC3)CC1` [Example 63, 2-[2-[4-(4-Fluorobenzoyl)-4-hydroxypiperidin-1-yl]ethyl]-5,6,7,8-tetrahydro-1,2,4-triazolo[4,3-a]pyridin-3(2H)-one Hydrochloride], the “Antagonistic Activity α1 (%)” value in data set [1] was 0%. Besides, the “Antagonistic Activity 5-HT2 (%)” value at Serotonin 2-Receptor came to 85%.

For the molecule `O=C(c1ccc(F)cc1)C1CCN(CCn2c(=O)[nH]c3ccccc3c2=O)CC1` [Ketanserin, reference compound], the “Antagonistic Activity α1 (%)” value in data set [1] is recorded as 73%. Further, on Serotonin 2-Receptor, the “Antagonistic Activity 5-HT2 (%)” value is 96%. Further, the “Toxicity (Death Rate)” value with ddy male mice (mouse, in vivo, po, 200 mg/kg) was 5/5.

Turning to `O=C(c1ccc(F)cc1)C1(O)CCN(CCn2c(=O)nc3n(c2=O)CCCC3)CC1` [Example 11, 3-[2-[4-(4-Fluorobenzoyl)-4-hydroxy-piperidin-1-yl]ethyl]-6,7,8,9-tetrahydro-2H-pyrido[1,2-a-]-1,3,5-triazine-2,4(3H)-dione Dihydrochloride Hemihydrate], the “Antagonistic Activity α1 (%)” value in data set [1] came to 0%. Further, the “Antagonistic Activity 5-HT2 (%)” value at Serotonin 2-Receptor worked out at 83%.

Turning to `Cc1nc2sccn2c(=O)c1CCN1CCC(=C(c2ccc(F)cc2)c2ccc(F)cc2)CC1` [Ritanserin, reference compound], the “Antagonistic Activity α1 (%)” value in data set [1] is 5%. Besides, the “Antagonistic Activity 5-HT2 (%)” value on Serotonin 2-Receptor is on record as 84%. Besides, in the data set on ddy male mice (setting [4]), the “Toxicity (Death Rate)” value is on record as 3/5.

For the molecule `O=c1n(CCN2CCC(=C(c3ccc(F)cc3)c3ccc(F)cc3)CC2)nc2n1CCCO2` [Example 44, 2-[2-[4-Bis(4-fluorophenyl)methylene]piperidin-1-yl]ethyl]-6,7-dihydro-5H-1,2,4-triazolo[3.4-b1-1,3-oxazin-3(2H)-one Hydrochloride Hemihydrate], the “Antagonistic Activity α1 (%)” value in data set [1] was found to be 2%. In addition, the “Antagonistic Activity 5-HT2 (%)” value on Serotonin 2-Receptor is on record as 89%. Further, the “Toxicity (Death Rate)” value in the data set on ddy male mice (setting [4]) is reported as 2/5.

For `Cl.O=C(c1ccc(F)cc1)C1CCN(CCn2nc3n(c2=O)CCCC3)CC1` [Example 51, 2-[2-[4-(4-Fluorobenzoyl)piperidin-1-yl]ethyl]-5,6,7,8-tetrahydro-1,2,4-triazolo[4,3-a]-pyridin-3(2H)-one Hydrochloride], the “Antagonistic Activity α1 (%)” value in data set [1] is 3%. In addition, the “Antagonistic Activity 5-HT2 (%)” value on Serotonin 2-Receptor came out at 95%. Further, the “Toxicity (Death Rate)” value with ddy male mice (setting [4]) is given as 0/5.

Regarding `O=C(c1ccc(F)cc1)C1CCN(CCn2c(=O)nc3n(c2=O)CCCC3)CC1` [Example 3, 3-[2-[4-(4-Fluorobenzoyl)piperidin-1-yl]ethyl]-6,7,8,9-tetrahydro-2H-pyrido1,2-a]-1,3,5-triazine-2,4(3H)-dione Maleate], the “Frequency of Periodic Reduction in Blood Flow Rate, After Admin.” value with Mongrel dogs [3] was determined as 2.3 ± 1.2. Also, the “Antagonistic Activity α1 (%)” value in data set [1] was 39%. Besides, the “Antagonistic Activity 5-HT2 (%)” value at Serotonin 2-Receptor is reported as 93%. Further, the “Toxicity (Death Rate)” value with ddy male mice (setting [4]) is recorded as 0/5. Further, the “Number of Dead Animals” value in the data set with rats (50 mg/kg (p.o.)), in the data set with rats (200 mg/kg (p.o.)) and in the data set on rats (800 mg/kg (p.o.)) was 0 in each case.

For the molecule `Cl.Cl.O=c1nc2n(c(=O)n1CCN1CCC(=C(c3ccc(F)cc3)c3ccc(F)cc3)CC1)CCC2` [Example 20, 3-[2-[4-[Bis(4-fluorophenyl)methylene]-piperidin-1-yl]ethyl]-7,8-dihydro-2H,6H-pyrrolo[1,2-a]-1,3,5-triazine-2,4(3H)-dione Dihydrochloride], the “Antagonistic Activity α1 (%)” value in data set [1] is recorded as 1%. Also, on Serotonin 2-Receptor, the “Antagonistic Activity 5-HT2 (%)” value turned out to be 83%.

Take `CCO.Cl.O=c1n(CCN2CCC(=C(c3ccccc3)c3ccc(F)cc3)CC2)nc2n1CCCCC2` [Example 36, 2-[2-[4-[(4-Fluorophenyl)(phenyl)methylene]piperidin-1-yl]ethyl]-2,5,6,7,8,9-hexahydro-3H-1,2,4-triazolo[4,3-a]azepin-3-one Hydrochloride Ethanolate]: the “Antagonistic Activity α1 (%)” value in data set [1] stood at 3%. Moreover, the “Antagonistic Activity 5-HT2 (%)” value on Serotonin 2-Receptor is 84%. For the same molecule, in the data set with ddy male mice (setting [4]), the “Toxicity (Death Rate)” value is reported as 0/5.

For `O=c1n(CCN2CCC(=C(c3ccc(F)cc3)c3ccc(F)cc3)CC2)nc2n1CCCCC2` [Example 34, 2-[2-[4-[Bis(4-fluorophenyl)methylene]piperidin-1-yl]ethyl]-2,5,6,7,8,9-hexahydro-3H-1,2,4-triazolo[4,3-a]azepin-3-one Hydrochloride Hemihydrate], the “Antagonistic Activity α1 (%)” value in data set [1] stood at 3%. Besides, the “Antagonistic Activity 5-HT2 (%)” value on Serotonin 2-Receptor is reported as 90%. For the same molecule, the “Toxicity (Death Rate)” value in the data set with ddy male mice (setting [4]) is recorded as 1/4.
